Experimental data from paper PMC12492365, “Drug Interaction of Dasatinib with Thymoquinone: A Pharmacokinetic Study in Rats” (International Journal of Medical Sciences, 2025).
Where two headings read alike, the source gives them in different places.

Legend:
CYP3A2 = assay: Western blot of CYP3A2 protein expression in liver and lumen tissues; type: in vivo, Wistar rats; conditions: for Elevation of CYP3A2 protein expression: DAS 25 mg/kg p.o. vs normal controls; for Suppression of CYP3A2 upregulation: TQ 40 mg/kg p.o. seven days in DAS-treated rats vs DAS group
Method: The adult male Wistar rats (204-226 g) were procured from the College of Pharmacy Animal Care and Use Facility, King Saud University, Riyadh, Saudi Arabia. The animals were hold in polycarbonate rat cages, with 12h light/dark cycle at 25 ± 2 °C. All groups were allowed ad libitum before the study. This study was conducted following the ethical guidelines approved by the facility and the study was approved by the King Saud University College of Pharmacy Research Ethics Committee (KSU-SE-21-58). Overnight fasted animals (n=24) were divided into four groups (n=6 per group). Group I (normal controls) and Group II were administered normal saline by oral gavage for seven consecutive days. […] Group IV received TQ (40 mg/kg/day) by oral gavage for seven consecutive days. […] The collected blood was centrifuged at 3000 ×g for 10 minutes to separate the plasma, which was then collected and stored in Eppendorf tubes for UHPLC-MS/MS analysis. After completion of the study, the animals were euthanized, and liver and lumen tissues were collected for Western blot analysis. […] Briefly, DAS and ibrutinib (IBR;(internal standard, IS) were separated on an Acquity BEH C18 column. Prior to sample analysis, the method underwent validation for precision and accuracy. A non-compartmental analysis was empoyed to calculate the PK parameters of DAS using the PK Solver software (version 1.01). The liver and intestine tissues were homogenized in RIPA lysis buffer and incubated for 30 minutes, followed by centrifugation at 10,000 rpm for 20 minutes at 4 °C. The supernatants were then collected and stored at -20 °C. Total protein content was determined using the bicinchoninic acid (BCA) assay. Protein expression of CYP3A2, Pgp, and BCRP proteins were analyzed according to previously published methods, [17], [34], [35]. All data are expressed as the mean ± SEM.

rats = conditions: 30 mg/kg, no reference given; cited from earlier work
Pgp = assay: Western blot of Pgp protein expression in liver and lumen tissues; type: in vivo, Wistar rats; conditions: for Increase of Pgp expression: DAS 25 mg/kg p.o. vs untreated animals; for Suppression of Pgp expression: TQ pretreatment in DAS-treated rats vs DAS group
Method: (§1) The adult male Wistar rats (204-226 g) were procured from the College of Pharmacy Animal Care and Use Facility, King Saud University, Riyadh, Saudi Arabia. The animals were hold in polycarbonate rat cages, with 12h light/dark cycle at 25 ± 2 °C. All groups were allowed ad libitum before the study. This study was conducted following the ethical guidelines approved by the facility and the study was approved by the King Saud University College of Pharmacy Research Ethics Committee (KSU-SE-21-58). Overnight fasted animals (n=24) were divided into four groups (n=6 per group). Group I (normal controls) and Group II were administered normal saline by oral gavage for seven consecutive days. On the seventh day, Group II received a single dose of DAS (25 mg/kg, p.o.) via oral gavage. Group III received TQ (40 mg/kg, p.o.) via oral gavage for seven days, and two hours after the final TQ dose, DAS (25 mg/kg, p.o.) was administered by oral gavage. Group IV received TQ (40 mg/kg/day) by oral gavage for seven consecutive days. For the PK study, blood samples were collected via a tail vein in heparinized vacutainers at various time intervals (i.e., 0, 0.5, 1, 2, 4, 6, 8, 10, 12 h post DAS dosing). The collected blood was centrifuged at 3000 ×g for 10 minutes to separate the plasma, which was then collected and stored in Eppendorf tubes for UHPLC-MS/MS analysis. After completion of the study, the animals were euthanized, and liver and lumen tissues were collected for Western blot analysis. DAS concentrations in plasma samples were determined using an UHPLC-MS/MS method according to a previously described method. Briefly, DAS and ibrutinib (IBR;(internal standard, IS) were separated on an Acquity BEH C18 column. Prior to sample analysis, the method underwent validation for precision and accuracy. A non-compartmental analysis was empoyed to calculate the PK parameters of DAS using the PK Solver software (version 1.01).
(§2) The liver and intestine tissues were homogenized in RIPA lysis buffer and incubated for 30 minutes, followed by centrifugation at 10,000 rpm for 20 minutes at 4 °C. The supernatants were then collected and stored at -20 °C. Total protein content was determined using the bicinchoninic acid (BCA) assay. Protein expression of CYP3A2, Pgp, and BCRP proteins were analyzed according to previously published methods, [17], [34], [35].
(§3) All data are expressed as the mean ± SEM. The pharmacokinetic and protein expression data were compared using one-way analysis of variance followed by Dunnett's test and a p value of ≤0.05 was used for statistical significance.

[1] = Pharmacokinetic study of oral dasatinib with and without TQ pretreatment, plasma UHPLC-MS/MS, non-compartmental analysis; type: in vivo, Wistar rats; conditions: rats
Method: as §1, §3

BCRP = assay: Western blot of BCRP protein expression in liver and lumen tissues; type: in vivo, Wistar rats; conditions: for Induction of BCRP protein expression: oral DAS vs untreated animals; for Inhibition of BCRP protein expression: TQ pretreatment in the DAS treatment group
Method: as §1, §2, §3

wistar rats = test system: wistar rats; design: method as in PMID 23440704, PMID 32273798; conditions: ref [46], [47], cited from earlier work
[2] = DAS 25 mg/kg p.o. alone, mean ±SEM
[3] = DAS+TQ vs DAS alone, positive = increase
[4] = TQ pretreatment vs control (DAS alone), given as decrease
[5] = male, Wistar, rat, plasma, po, DAS 25 mg/kg p.o. alone, mean ±SEM

Cc1nc(Nc2ncc(C(=O)Nc3c(C)cccc3Cl)s2)cc(N2CCN(CCO)CC2)n1 [DAS, Dasatinib]
Elevation of CYP3A2 protein expression (CYP3A2; liver): 91.84% | Elevation of CYP3A2 protein expression (CYP3A2; lumen): 93.47% | Tolerability in acute toxicity studies (rats): well tolerated | Increase of Pgp expression (Pgp; liver): 75.62% | Increase of Pgp expression (Pgp; lumen): 77.19% | AUMC0-∞ [1, 2]: 29259.52 ±3397.55 ng/ml*h^2 | CL [1, 2]: 0.01 ±0.00 (mg/kg)/(ng/ml)/h | Vd [1, 2]: 0.11 ±0.00 (mg/kg)/(ng/ml) | % Change in AUC0-t of DAS [1, 3]: 166.53% | % Change in AUMC0-∞ of DAS [1, 3]: 0.34% | % Change in Cmax of DAS [1, 3]: 213.26% | % Change in Kel of DAS [1, 3]: 93.85% | % Change in Tmax of DAS [1, 3]: 83.33% | Decrease (reduction) in CL of DAS [1, 4]: 36.35% | Decrease (reduction) in Vd of DAS [1, 4]: 67.70% | Decrease in MRT of DAS [1, 4]: 49.12% | AUC(0-inf) [1, 5]: 2500 ± 113 ng·h/mL | AUC(0-t) [1, 5]: 1610 ± 28.9 ng·h/mL | Cmax [1, 5]: 246 ± 3.34 ng/mL | MRT [1, 5]: 11.5 ± 0.81 h | half-life [1, 5]: 7.77 ± 0.65 h | k el [1, 5]: 2.5e-05 s⁻¹ | Induction of BCRP protein expression (BCRP; liver): 74.82% | Induction of BCRP protein expression (BCRP; lumen): 76.05%

CC1=CC(=O)C(C(C)C)=CC1=O [TQ, 2-Methyl-5-(propan-2-yl)cyclohexa-2,5-diene-1,4-dione]
Effect on CYP3A2 expressions (CYP3A2; TQ alone 40 mg/kg/day seven days vs normal controls): did not significantly altered | Suppression of CYP3A2 upregulation (CYP3A2; liver): 53.98% | Suppression of CYP3A2 upregulation (CYP3A2; lumen): 40.30% | Effect on liver and lumen Pgp protein expressions (Pgp; TQ pretreatment alone vs untreated animals): did not affect | Suppression of Pgp expression (Pgp; liver): 47.97% | Suppression of Pgp expression (Pgp; lumen): 37.72% | maximum tolerated dose (MTD) (wistar rats; i.p. injection, female rats): 15 mg/kg | maximum tolerated dose (MTD) (wistar rats; i.p. injection, male rats): 22.5 mg/kg | maximum tolerated dose (MTD) (wistar rats; oral, both male and female rats): 250 mg/kg | Effect on liver and lumen BCRP protein levels (BCRP; TQ treatment alone vs normal controls): no significant changes | Inhibition of BCRP protein expression (BCRP; liver): 50.48% | Inhibition of BCRP protein expression (BCRP; lumen): 48.46%
